In ChEMBL document CHEMBL1629535, “Novel small molecule inhibitors of MDR Mycobacterium tuberculosis by NMR fragment screening of antigen 85C” (2010):
Converted amounts (≈) assume the structure as drawn.

Assays:
Type in all cases: functional
[1] = tested on: Mycolicibacterium smegmatis; test: Growth inhibition of Mycobacterium smegmatis
[2] = tested on: Mycolicibacterium aurum; test: Growth inhibition of multidrug resistance Mycobacterium aurum
[3] = tested on: Mycobacterium tuberculosis; test: Growth inhibition of Mycobacterium tuberculosis H37 by radiometric BACTEC 460 assay

SMILES	MIC [1]	MIC [2]	MIC [3]
CC1CCc2c(sc(N)c2C(N)=O)C1 (configuration not stated)	> 32 µg/mL	–	–
CCCC1CCc2c(sc(N)c2C(N)=O)C1 (configuration not stated)	64 µg/mL (≈ 269 µM)	–	–
[N-]=[N+]=NC[C@H]1O[C@H](O[C@H]2O[C@H](CO)[C@@H](O)[C@H](O)[C@H]2O)[C@H](O)[C@@H](O)[C@@H]1O	–	200 µg/mL (≈ 544 µM)	–
N#Cc1c(N)sc2c1CCCCC2	64 µg/mL (≈ 333 µM)	–	> 500 µg/mL
CCC1CCc2c(sc(N)c2C#N)C1 (configuration not stated)	32 µg/mL (≈ 155 µM)	–	50 µg/mL (≈ 242 µM)
CCCC1CCc2c(sc(N)c2C#N)C1 (configuration not stated)	16 µg/mL (≈ 72.6 µM)	–	50 µg/mL (≈ 227 µM)
CCC1CCc2c(sc(N)c2C(N)=O)C1 (configuration not stated)	64 µg/mL (≈ 285 µM)	–	–
CCCOc1ccc2nc(N)sc2c1	32 µg/mL (≈ 154 µM)	–	20 µg/mL (≈ 96 µM)
